In the NIST ThermoML archive (doi:10.1016/j.jct.2013.08.030):
± gives the expanded uncertainty stated by the source.

Assay: activity coefficient (dimensionless); of the first substance listed, at infinite dilution; xn = mol fraction of the nth substance listed
Conditions: 101 kPa, Liquid, Chromatography, x1 = 0

Compound	activity coefficient (318.15 K)	activity coefficient (328.15 K)	activity coefficient (338.15 K)	activity coefficient (348.15 K)	activity coefficient (358.15 K)	activity coefficient (368.15 K)
CCCO [propan-1-ol] + CCCC[N+]1(C)CCOCC1.N#C[C-](C#N)C#N	1.62 ± 0.11	1.52 ± 0.1	1.43 ± 0.09	1.35 ± 0.09	1.29 ± 0.08	1.23 ± 0.08
O [water] + CCCC[N+]1(C)CCOCC1.N#C[C-](C#N)C#N	1.03 ± 0.06	0.971 ± 0.061	0.916 ± 0.058	0.86 ± 0.055	0.819 ± 0.053	0.78 ± 0.051
C=CCCCC [hex-1-ene] + CCCC[N+]1(C)CCOCC1.N#C[C-](C#N)C#N	22.6 ± 1.5	21.3 ± 1.5	20 ± 1.4	19.1 ± 1.3	18.2 ± 1.2	17.4 ± 1.2
COC(C)=O [methyl ethanoate] + CCCC[N+]1(C)CCOCC1.N#C[C-](C#N)C#N	1.2 ± 0.08	1.23 ± 0.08	1.24 ± 0.08	1.26 ± 0.08	1.29 ± 0.08	1.3 ± 0.08
CC(C)OC(C)C [diisopropyl ether] + CCCC[N+]1(C)CCOCC1.N#C[C-](C#N)C#N	17.8 ± 1.2	17.4 ± 1.2	16.8 ± 1.1	16.5 ± 1.1	16 ± 1.1	15.6 ± 1.1
CO [methanol] + CCCC[N+]1(C)CCOCC1.N#C[C-](C#N)C#N	0.825 ± 0.053	0.79 ± 0.051	0.762 ± 0.05	0.729 ± 0.048	0.704 ± 0.047	0.677 ± 0.046
Cc1ccccc1C [1,2-dimethylbenzene] + CCCC[N+]1(C)CCOCC1.N#C[C-](C#N)C#N	2.96 ± 0.2	2.99 ± 0.2	3.02 ± 0.21	3.04 ± 0.21	3.07 ± 0.21	3.08 ± 0.21
C#CCCC [1-pentyne] + CCCC[N+]1(C)CCOCC1.N#C[C-](C#N)C#N	3.69 ± 0.25	3.73 ± 0.25	3.75 ± 0.26	3.8 ± 0.26	3.81 ± 0.26	3.83 ± 0.26
CC(C)CO [2-methyl-1-propanol] + CCCC[N+]1(C)CCOCC1.N#C[C-](C#N)C#N	2.19 ± 0.15	2.03 ± 0.14	1.87 ± 0.13	1.74 ± 0.12	1.65 ± 0.11	1.56 ± 0.1
CCC(C)(C)OC [2-methoxy-2-methylbutane] + CCCC[N+]1(C)CCOCC1.N#C[C-](C#N)C#N	8.61 ± 0.59	8.52 ± 0.58	8.42 ± 0.57	8.37 ± 0.57	8.29 ± 0.57	8.21 ± 0.56
CC#N [acetonitrile] + CCCC[N+]1(C)CCOCC1.N#C[C-](C#N)C#N	0.617 ± 0.043	0.62 ± 0.043	0.624 ± 0.043	0.624 ± 0.043	0.629 ± 0.043	0.63 ± 0.044
COC(C)(C)C [2-methoxy-2-methylpropane] + CCCC[N+]1(C)CCOCC1.N#C[C-](C#N)C#N	5.74 ± 0.39	5.77 ± 0.39	5.74 ± 0.39	5.76 ± 0.39	5.77 ± 0.39	5.78 ± 0.39
CCCCCCCCC [nonane] + CCCC[N+]1(C)CCOCC1.N#C[C-](C#N)C#N	187 ± 13	168 ± 12	151 ± 10	137 ± 9	126 ± 9	115 ± 8
CC(C)CC(C)(C)C [2,2,4-trimethylpentane] + CCCC[N+]1(C)CCOCC1.N#C[C-](C#N)C#N	103 ± 7	93.4 ± 6.4	84.2 ± 5.8	76.9 ± 5.3	70.8 ± 4.9	64.5 ± 4.4
C1=CCCCC1 [cyclohexene] + CCCC[N+]1(C)CCOCC1.N#C[C-](C#N)C#N	9.44 ± 0.64	9.08 ± 0.62	8.71 ± 0.59	8.46 ± 0.58	8.16 ± 0.56	7.92 ± 0.54
CCCC=O [butanal] + CCCC[N+]1(C)CCOCC1.N#C[C-](C#N)C#N	1.2 ± 0.08	1.24 ± 0.08	1.26 ± 0.08	1.3 ± 0.08	1.33 ± 0.09	1.35 ± 0.09
c1ccsc1 [thiophene] + CCCC[N+]1(C)CCOCC1.N#C[C-](C#N)C#N	1.01 ± 0.06	1.04 ± 0.07	1.06 ± 0.07	1.08 ± 0.07	1.1 ± 0.07	1.12 ± 0.07
C=C(C)c1ccccc1 [(1-methylethenyl)benzene] + CCCC[N+]1(C)CCOCC1.N#C[C-](C#N)C#N	2.8 ± 0.19	2.89 ± 0.2	2.99 ± 0.2	3.07 ± 0.21	3.15 ± 0.21	3.22 ± 0.22

Compound	activity coefficient (318.15 K)	activity coefficient (328.15 K)	activity coefficient (338.15 K)	activity coefficient (348.15 K)	activity coefficient (358.15 K)	activity coefficient (368.15 K)
CCCCO [butan-1-ol] + CCCC[N+]1(C)CCOCC1.N#C[C-](C#N)C#N	2.18 ± 0.15	2.04 ± 0.14	1.91 ± 0.13	1.79 ± 0.12	1.7 ± 0.11	1.61 ± 0.11
CCc1ccccc1 [ethylbenzene] + CCCC[N+]1(C)CCOCC1.N#C[C-](C#N)C#N	3.74 ± 0.25	3.74 ± 0.25	3.75 ± 0.26	3.75 ± 0.26	3.75 ± 0.26	3.75 ± 0.26
C=Cc1ccccc1 [styrene] + CCCC[N+]1(C)CCOCC1.N#C[C-](C#N)C#N	1.82 ± 0.12	1.86 ± 0.13	1.9 ± 0.13	1.93 ± 0.13	1.96 ± 0.13	1.99 ± 0.14
C1CCCCCC1 [cycloheptane] + CCCC[N+]1(C)CCOCC1.N#C[C-](C#N)C#N	28.1 ± 1.9	26 ± 1.8	24 ± 1.6	22.5 ± 1.5	21 ± 1.4	19.7 ± 1.3
C#CCCCCC [1-heptyne] + CCCC[N+]1(C)CCOCC1.N#C[C-](C#N)C#N	8.28 ± 0.56	8.26 ± 0.56	8.2 ± 0.56	8.2 ± 0.56	8.13 ± 0.55	8.05 ± 0.55
CCC(=O)CC [pentan-3-one] + CCCC[N+]1(C)CCOCC1.N#C[C-](C#N)C#N	1.42 ± 0.09	1.44 ± 0.09	1.47 ± 0.1	1.49 ± 0.1	1.51 ± 0.1	1.54 ± 0.1
C#CCCCCCC [1-octyne] + CCCC[N+]1(C)CCOCC1.N#C[C-](C#N)C#N	12.8 ± 0.9	12.6 ± 0.9	12.4 ± 0.8	12.2 ± 0.8	12 ± 0.8	11.8 ± 0.8
Cc1cccc(C)c1 [1,3-dimethylbenzene] + CCCC[N+]1(C)CCOCC1.N#C[C-](C#N)C#N	3.54 ± 0.24	3.56 ± 0.24	3.61 ± 0.25	3.61 ± 0.25	3.62 ± 0.25	3.62 ± 0.25
CC1CCCCC1 [methylcyclohexane] + CCCC[N+]1(C)CCOCC1.N#C[C-](C#N)C#N	35.2 ± 2.4	32.3 ± 2.2	29.7 ± 2	27.6 ± 1.9	25.7 ± 1.8	24 ± 1.6
Cc1ccccc1 [toluene] + CCCC[N+]1(C)CCOCC1.N#C[C-](C#N)C#N	2.3 ± 0.16	2.33 ± 0.16	2.36 ± 0.16	2.38 ± 0.16	2.41 ± 0.16	2.43 ± 0.17
C1COCCO1 [1,4-dioxane] + CCCC[N+]1(C)CCOCC1.N#C[C-](C#N)C#N	0.707 ± 0.047	0.74 ± 0.049	0.772 ± 0.05	0.798 ± 0.052	0.831 ± 0.054	0.853 ± 0.055
c1ccncc1 [pyridine] + CCCC[N+]1(C)CCOCC1.N#C[C-](C#N)C#N	0.733 ± 0.049	0.748 ± 0.049	0.758 ± 0.05	0.766 ± 0.05	0.766 ± 0.05	0.788 ± 0.051
CCC(C)CC [3-methylpentane] + CCCC[N+]1(C)CCOCC1.N#C[C-](C#N)C#N	51.3 ± 3.5	46 ± 3.1	42.3 ± 2.9	38.9 ± 2.7	36.3 ± 2.5	33.5 ± 2.3
CCC(C)O (stereo not given) [butan-2-ol] + CCCC[N+]1(C)CCOCC1.N#C[C-](C#N)C#N	2.05 ± 0.14	1.93 ± 0.13	1.81 ± 0.12	1.71 ± 0.11	1.64 ± 0.11	1.58 ± 0.1
CCCCCC [hexane] + CCCC[N+]1(C)CCOCC1.N#C[C-](C#N)C#N	56.5 ± 3.9	51.1 ± 3.5	46.7 ± 3.2	43.2 ± 3	40.3 ± 2.8	37.2 ± 2.5
Cc1ccc(C)cc1 [1,4-dimethylbenzene] + CCCC[N+]1(C)CCOCC1.N#C[C-](C#N)C#N	3.49 ± 0.24	3.52 ± 0.24	3.54 ± 0.24	3.57 ± 0.24	3.59 ± 0.24	3.63 ± 0.25
CCC[N+](=O)[O-] [1-nitropropane] + CCCC[N+]1(C)CCOCC1.N#C[C-](C#N)C#N	0.982 ± 0.062	0.99 ± 0.062	0.998 ± 0.062	1 ± 0.06	1.01 ± 0.06	1.01 ± 0.06
